US11872199B2, “Topical formulations of cyclooxygenase inhibitors and their use” (SMARTECH TOPICAL, INC., priority 2019, dated 2024)

What was measured:
[1] = Franz diffusion cell skin permeation testing of diclofenac formulations; assay type: in vitro ADME, human; conditions: Example 7, as permeation enhancer in 2% diclofenac formulation
Procedure: Franz diffusion cell experiments were used to analyze flux rates of diclofenac from compositions taught under the present disclosure across human skin. See, e.g., Bartosova and Bajgar, Transdermal Drug Delivery In Vitro Using Diffusion Cells, Curr. Med. Chem. 2012, 19: 4671-4677.
In the examples described herein, Franz diffusion cells (“FDC”s) with a 3.3 mL receptor well volume were used, with either porcine skin or human cadaver skin. For human cadaver skin, split thickness human cadaver skin (0.015″-0.018″) was obtained from AlloSource (Centennial, Colo.) or Skin Bank New York Firefighters (New York, N.Y.). The skin tissue was dermatomed by the tissue bank to a thickness of some 250 μm and shipped frozen on dry ice. […]
The integrity and quality of each skin piece was tested prior to application of the test formulations through measurement of the transdermal flux of tritiated water or of the transepidermal electrical resistance (“TEER”) (skin integrity was usually not tested on porcine skin pieces). […] An alternating current (“AC”) signal, 100 mV root mean square (“RMS”) at 100 Hz, was applied across the skin using a waveform generator and the impedance is then measured with a digital multimeter and the results recorded in kΩ. Any FDC showing anomalously low impedance (nominally <2 kΩ) was discarded and the FDCs were ranked according to the magnitudes of the measured impedance readings. […]

[2] = printed as negative log P; cited from earlier work

| effect on penetration of diclofenac [1] | SMILES | log P [2] |
| --- | --- | --- |
| enhance penetration of diclofenac | CCCCCCCC/C=C\CCCCCCCC(=O)O [Oleic Acid, cis-9-octadecenoic acid] |  |
| enhance penetration of diclofenac | CCCCCCCC/C=C\CCCCCCCCO [Oleyl Alcohol, oleyl alcohol] |  |
|  | CCOCCOCCO [Transcutol, 2-(2-Ethoxyethoxy)ethanol] | ~-0.5 |
